The values that follow come from US20020115059A1, “Drug screening system” (priority 2000, published 2002).

For the test, the system named is mouse ES cells. As to the kind of experiment: In vitro hepatic differentiation of ES cells (EBs): marker mRNA expression by RT-PCR / real-time PCR. In kind it is cell-based. Particulars: EBs on collagen coated dishes, factors of individual stages, Day 18. As for the experimental part:
Cell Culture—The ES cell lines R1 (129Sv strain), W9.5 (129Sv), and SEK1 null (established from W9.5) (Ganiatsas et al., (1998) Proc. Natl. Acad. Sci. USA 95, 6881-6) were maintained undifferentiated in gelatin-coated dishes in DMEM (GIBCO BRL, Grand Island, N.Y.) containing 15% fetal bovine serum (Atlanta biologicals, Norcross, Ga.), 2 mM L-glutamine, 100 units/ml penicilin, 100 μg/ml streptomycin, 25 mM Hepes (GIBCO BRL), 300 μM monothioglycerol (Sigma, St. Louis, Mo.), and 250 unit/ml recombinant mouse LIF (ESGRO, CHEMICON, Temecula, Calif.). To induce differentiation, ES cells were suspended in IMDM containing 2 mM L-glutamine, 100 units/ml penicillin, 100 μg/ml streptomycin (GIBCO BRL), 20% fetal bovine serum (Atlanta biologicals) and 300 μM monothioglycerol (Sigma). Cells were cultured for 2 days by the hanging-drop method (1×10^3 ES cells per 30 μl in each drop) (Metzger et al., (1994) J. Cell. Biol. 126, 701-11). EBs in hanging drops were transferred to suspension culture in 100-mm petri dishes and cultured for an additional 3 days. […]
For each gene, the DNA primers were originated from different exons to ensure that the PCR product represented the specific mRNA species and not genomic DNA. Relative quantitation of albumin gene was performed by ABIPRISM5700 sequence detection system and SYBR green PCR master mix (PE Biosystems, Foster City, Calif.). […]

hepatocyte growth factor [HGF]: the “G6P expression (FIG. 5a)” value was “critical”.
